Reference: patent US20040077674A1, “Mappicine analogs, intermediates in the synthesis of mappicine analogs and methods of synthesis of mappicine analogs” (priority 2002, published 2004)
Several values for one entry are separate records, joined by “and”; a condition that tells them apart may be missing. Identical values can stand only once. Like-named read-outs stand apart in the source and are kept apart here.

Columns and labels:
[1] = biological target: T1, RNA-dependent DNA polymerase activity of HIV reverse transcriptase (Human immunodeficiency virus type 1 group M subtype B, UniProt P03366); test: RNA-dependent DNA polymerase activity assay of HIV reverse transcriptase; assay type: biochemical, HIV-1; conditions: 10 μM inhibitor concentration; activity in presence / in absence of analog x 100; read-out: Residual activity (%) Polymerase
T1 construct: made in house
How it was run: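 Single-concentration test of mappicine analogs at 10 μM final against the RNA-dependent DNA polymerase activity of HIV RT. Value is % residual activity: polymerase activity with analog divided by activity without analog, ×100.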

[2] = biological target: T2, RNase H activity of HIV reverse transcriptase (Human immunodeficiency virus type 1 group M subtype B, UniProt P03366); test: Fluorescence (FRET)-based RNase H assay of HIV reverse transcriptase; assay type: biochemical, HIV-1; conditions: for remaining activity at 10 µM: 10 μM inhibitor concentration, activity in presence / in absence of analog x 100, read-out: Residual activity (%) RNase H; for IC50: in vitro, read-out: IC50 (μM) against HIV RNase H in vitro
T2 construct: 2.5 nM of the p51/p66 RT heterodimer in the assay; made in house

[3] = system: HIV-1 replication; test: HIV-1 replication in cultured cells (cell culture viral growth assay); assay type: cell-based
[4] = biological target: T2, RNase H activity of HIV reverse transcriptase; conditions: read-out: IC50 of RNase H inhibition; literature (Borkow et al. 1997); cited from earlier work
[5] = system: HIV-1 replication; conditions: published RNase H inhibitors; cited from earlier work
[6] = system: cells; conditions: cited from earlier work
[7] = system: cells; conditions: cited from earlier work; remark: listed apart in the source
[8] = system: mutant HIV-1 strain with K103N+Y181C in the viral reverse transcriptase; test: Replication of NNRTI-resistant mutant HIV-1 strain K103N+Y181C in cultured cells; assay type: cell-based; conditions: K103N+Y181C mutant HIV-1; read-out: EC50 of inhibition of replication of resistant virus strain
[9] = system: mutant HIV-1 strain with V106A+Y181C in the viral reverse transcriptase; test: Replication of NNRTI-resistant mutant HIV-1 strain V106A+Y181C in cultured cells; assay type: cell-based; conditions: V106A+Y181C mutant HIV-1; read-out: EC50 of inhibition of replication of resistant virus strain
[10] = Human immunodeficiency virus 1, cell culture viral growth assays, read-out: EC50 (μM) against HIV-1 replication

CCC(O)c1cc2n(c(=O)c1C)Cc1c-2nc2ccc(NC(=O)OC(C)(C)C)cc2c1[Si](C)(C)C (stereo not shown) [5 (AG 2M), 2-tert-Butyloxycarbonylamino-7-(1-hydroxypropyl)-8-methyl-12-trimethylsilanyl-11H-indolizino [1,2-b]quinolin-9-one]
remaining activity at 10 µM [1]: 80% | remaining activity at 10 µM [2]: 47% | IC50 [2]: < 10 µM and 8 µM | EC50 [3, 10]: ~5 µM

CCc1c2c(nc3ccc(NC(=O)OC(C)(C)C)cc13)-c1cc(C(O)CC)c(C)c(=O)n1C2 (stereo not shown) [5 (AG 5M), 2-tert-Butyloxycarbonylamino-12-ethyl-7-(1-hydroxypropyl)-8-methyl-11H-indolizino[1,2-b]quinolin-9-one]
remaining activity at 10 µM [1]: 87% | remaining activity at 10 µM [2]: 68%

CCc1c2c(nc3ccc(N)cc13)-c1cc(C(O)CC)c(C)c(=O)n1C2 (stereo not shown) [5 (AG 6M), 2-Amino-12-ethyl-7-(1-hydroxypropyl)-8-methyl-1 1H-indolizinol[1,2-b]quinolin-9-one]
remaining activity at 10 µM [1]: 76% | remaining activity at 10 µM [2]: 57% | IC50 [2]: < 10 µM and 10 µM | EC50 [3, 10]: ~5 µM

CCc1c2c(nc3ccc(O)cc13)-c1cc(C(O)CC)c(C)c(=O)n1C2 (stereo not shown) [5 (AG 8M), 12-Ethyl-2-hydroxy-7-(1-hydroxypropyl)-8-methyl-11H-indolizino[1,2-b]quinolin-9-one]
remaining activity at 10 µM [1]: 69% | remaining activity at 10 µM [2]: 87%

CC(C)(C)c1ccc(C(=O)NN=Cc2c(O)ccc3ccccc23)cc1 [BBNH, N-4-(t-butylbenzoyl)-2-hydroxy-1-naphthaldehyde hydrazone]
IC50 [2]: 1.8 µM | IC50 [4]: ~2 µM | antiviral activity against HIV-1 replication in cultured cells (in words) [5]: demonstrated antiviral activity against HIV-1 replication in cultured cells | toxicity to cells (in words) [6]: highly toxic to cells

O=C(O)C(=O)CC(=O)c1ccc(NC(=O)c2ccccc2)s1 [BTOBA, 4-[5-(benzoylamino)thien-2-yl]-2,4-dioxobutanoic acid]
antiviral activity against HIV-1 replication in cultured cells (in words) [5]: cannot inhibit HIV-1 replication in cultured cells | ability to penetrate cells (in words) [7]: Neither CPHM nor BTOBA are able to penetrate cells

O=C(O)C(=NNc1ccc(Cl)cc1)C(=O)O [CPHM, 2-[(4-chlorophenyl)-hydrazono]-malonic acid]
antiviral activity against HIV-1 replication in cultured cells (in words) [5]: cannot inhibit HIV-1 replication in cultured cells | ability to penetrate cells (in words) [7]: Neither CPHM nor BTOBA are able to penetrate cells

CCCc1c2c(nc3ccc(Cl)cc13)-c1cc(C(O)CCC3CCCCC3)c(C)c(=O)n1C2 (stereo not shown) [Compound 7.5.6]
% inhibition of RNase H at 20 μM ([2]; 20 μM inhibitor concentration): 100% | inhibitory activity against HIV-1 RNase H (in words) ([2]; dose-response curves FIG. 13, 10 μM or 20 μM screens): possess inhibitory activity against HIV-1 RNase H | EC50 ([3]; wild-type HIV-1 in cultured cells, read-out: EC50 of inhibition of replication of wild-type HIV-1): ~3 µM | EC50 [8]: 3.5 µM | EC50 [9]: 4.2 µM
